Experimental findings from patent US20230085945A1, “ORTHOGONAL SAFETY SWITCHES TO ELIMINATE GENETICALLY ENGINEERED CELLS” (The Board of Trustees of the Leland Stanford Junior …, priority 2020, published 2023) are described below.

Molecules are shown by their SMILES.

The test system of test [1] is ACTB^OiCasp9-mPlum;NANOG^iCasp9-YFP hPSCs and differentiated liver, bone and neural progenitors. In words: Killing of ACTB^OiCasp9-mPlum;NANOG^iCasp9-YFP hPSCs and differentiated derivatives by AP21 or AP20 (alamar blue). Format: cell-based, human. The settings on record: dual-transgenic line; 1 nM, 24 hours. Here is the method: FIG. 6: Rationale, design and implementation of the ACTB^OiCasP9-mPlum safety switch. A) Intended application of the dual ACTB^OiCasp9-mPlum;NANOG^iCasp9-YFP safeguard. B) Cas9 RNP/AAV6-based knock-in strategy for ACTB^iCasp9-mPlum targeting, which was performed in the NANOG^iCasp9-YFP hESC line. C) 5×10^5 ACTB^OiCasp9-mPlum; NANOG^iCasp9-YFP hESCs were treated with control media or 1-1000 nM AP21967 for 24 hours. Cell viability was analyzed using alamar blue. D) ACTB^OiCasp9-mPlum;NANOG^iCasp9-YFP and ACTB^TK-mPlum; NANOG^iCasp9-YFP hESCs (negative control), in addition to their respective differentiated derivatives, were treated for 24 hours with 1 nM of AP21967. E) 5×10^5 ACTB^OiCasp9-mPlum; NANOG^iCasp9-YFP hESCs, and their respective differentiated derivatives, were treated with control media, 1 nM of AP21967 or and 1 nM of AP20187 for 24 hours. Surviving cells were analyzed by alamar blue. F) 10^6 ACTB^OiCasp9-mPlum;NANOG^iCasp9-YFP hESCs engineered to express CAG-AkaLuciferase were treated with control media or 1 nM AP20187 for 24 hours, and then subcutaneously transplanted into the right and left dorsal flanks of NOD-SCID Il2rg^−/− mice (10^6 cells per flank). 4 weeks post-transplant, teratomas formed and AP21967 was intraperitoneally administered once at 10 mg/kg. […] Total flux (photons/sec) was measured for each animal and was averaged.
Background: Alamar Blue is a resazurin reagent that responds to reducing activity.

In test [2] the test system is ACTB^TK-mPlum;NANOG^iCasp9-YFP hESCs (iCaspase9-expressing cells). In words: AP21967 treatment of iCaspase9-expressing cells (cross-reactivity check). It counts as cell-based, human. The conditions noted are these: AP21967 24 hours.
The subject of test [3] is teratomas from ACTB^HSV-TK-mPlum;NANOG^iCasp9-YFP hPSCs. Nature of the test: Elimination of teratomas using ganciclovir in vivo (bioluminescent imaging). Details: species or system NSG mice. The conditions noted are these: week 7 post-transplantation, 4 weeks after initiating ganciclovir 50 mg/kg daily. Here is the method:
FIG. 5: Implementation of the ACTB^TK-mPlum safety switch. A) NANOG^iCasp9-YFP;ACTB^TK-mPlum hESCs were treated with ganciclovir (or left untreated) for 24 hours, and subsequently ganciclovir was withdrawn and hESCs were cultured for 1 week in mTeSR1 to detect any surviving cells and to allow them to regrow. […] N.D.=not detected. B) NANOG^iCasp9-YFP;ACTB^TK-mPlum hESCs were differentiated into day 6 liver, sclerotome and neural progenitors and treated with ganciclovir at the indicated doses for the last 24 hours of differentiation. Cell survival was analyzed by counting at day 6 of differentiation. C) 10^6 NANOG^iCasp9-YFP; ACTB^TK-mPlum hESCs engineered to express CAG-AkaLuciferase were treated with control media or 1 nM AP20187 for 24 hours, and then subcutaneously transplanted into the right and left dorsal flanks of NOD-SCID Il2rg^−/− mice (10^6 cells per flank). […] Total flux (photons/sec) was measured for each animal and were averaged.
FIG. 10: Supporting data for ACTB^TK-mPlum safety switch (related to FIGS. 4-5). […] Total flux (photons/sec) was measured for each animal.
Bioluminescent imaging. […] Subsequent image analysis was done in Aura with regions of interest (ROIs) drawn for each mouse to calculate Total Flux (photons/sec) in order to quantify teratoma growth over time. […]

Test [4] has as its system ACTB^HSV-TK-mPlum;NANOG^iCasp9-YFP hPSCs. Nature of the test: Quantification of cell death after ganciclovir treatment of hPSCs. Format: cell-based, human. The procedure:
FIG. 5: Implementation of the ACTB^TK-mPlum safety switch. A) NANOG^iCasp9-YFP;ACTB^TK-mPlum hESCs were treated with ganciclovir (or left untreated) for 24 hours, and subsequently ganciclovir was withdrawn and hESCs were cultured for 1 week in mTeSR1 to detect any surviving cells and to allow them to regrow. […] N.D.=not detected. B) NANOG^iCasp9-YFP;ACTB^TK-mPlum hESCs were differentiated into day 6 liver, sclerotome and neural progenitors and treated with ganciclovir at the indicated doses for the last 24 hours of differentiation. Cell survival was analyzed by counting at day 6 of differentiation. C) 10^6 NANOG^iCasp9-YFP; ACTB^TK-mPlum hESCs engineered to express CAG-AkaLuciferase were treated with control media or 1 nM AP20187 for 24 hours, and then subcutaneously transplanted into the right and left dorsal flanks of NOD-SCID Il2rg^−/− mice (10^6 cells per flank). After 3 weeks post-transplant, teratomas formed in vivo and ganciclovir was administered daily at 50 mg/kg until week 7 post-transplant. Bioluminescent imaging of mice was conducted weekly for 7 weeks. Total flux (photons/sec) was measured for each animal and were averaged.
Quantification of cell death after ganciclovir treatment. […] At the end of 6 days of culture in mTeSR1 alone, the number of surviving live cells was counted.

Test [5] deals with ACTB^HSV-TK-mPlum;NANOG^iCasp9-YFP hPSC-derived liver, bone and forebrain progenitors. Nature of the test: Ganciclovir treatment of differentiated progenitors, cell counting at day 6. It counts as cell-based, human. The conditions noted are these: ganciclovir for last 24 hours of differentiation.
Test [6] concerns H9 undifferentiated hPSCs and hPSC-derived neural, liver, and sclerotome cells. In words: YM155 treatment, cell viability by alamar blue. Format: cell-based, human. The conditions noted are these: YM155 10 nM or 2 μM, 24 hours. From the text:
FIG. 7: Marker expression during hPSC differentiation and evaluation of past safety switches (related to FIG. 2). A) i) Flow cytometry analysis of widely-used pluripotency surface markers SSEA-3, SSEA-4, TRA-1-60, TRA-1-81 and PODXL1^20,21 before and during differentiation into endodermal, mesodermal and ectodermal lineages for 1-6 days. Positive gates were set based on unstained negative controls. ii) Gene expression analysis of previously reported safety system genes CDK1, TERT, SCD1, PODXL1 and SURVIVIN before and during differentiation into endodermal, mesodermal and ectodermal lineages. Expression of lineage markers is depicted normalized to the reference gene YWHAZ (i.e., YWHAZ=1.0). B) Widely-used pluripotency surface markers such as SSEA-3, SSEA-4, TRA-1-60, TRA-1-81 and PODXL1^20,21 were not exclusive to pluripotent cells. […] Unstained hESCs (top row; grey shading) were used as a negative control to set positive gates (dotted vertical lines). […] D) H9 undifferentiated hPSCs and hPSC-derived neural, liver, and sclerotome cells (generated after 6 days of differentiation) were treated for 24 hours with YM155 (either 10 nM or 2 μM), a small molecule SURVIVIN inhibitor, and cell viability was assessed using alamar blue.

Take `CO[C@H]1[C@@H](O)[C@H](C)C[C@H](C)/C=C/C=C/C=C(\C)[C@@H](c2c[nH]c3c(C)cccc23)C[C@@H]2CC[C@@H](C)[C@@](O)(O2)C(=O)C(=O)N2CCCC[C@H]2C(=O)O[C@H]([C@H](C)C[C@@H]2CC[C@@H](O)[C@H](OC)C2)C[C@H](O)[C@H](C)/C=C(\C)[C@H]1O` [AP21]: in test [1], the “killing of undifferentiated and differentiated cells” value is “kill both undifferentiated hPSCs and differentiated liver, bone and neural progenitors”. Further, in test [2], the “killing of iCaspase9-expressing cells” value is “does not kill iCaspase9-expressing cells”.

As for `Nc1nc(O)c2ncn(COC(CO)CO)c2n1` [ganciclovir], the “detectable teratomas by bioluminescent imaging” value in test [3] was “no ganciclovir-treated mice had detectable teratomas”. Besides, the “in vitro proliferation of hPSCs” value in test [4] (ganciclovir 24 hours, then 1 week in mTeSR1) is listed as “broadly blocked the in vitro proliferation”. For the same compound, in test [4] (three days post-GCV treatment (0.5-2 μM, 24 hours)), the “cell death in hPSCs” value is reported as “cell death was observed”. Besides, the “in vitro proliferation of derivative liver, bone and forebrain progenitors” value in test [5] is “broadly blocked the in vitro proliferation”.

As to `COCCn1c2c([n+](Cc3cnccn3)c1C)C(=O)c1ccccc1C2=O` [YM155], in test [6], the “cell killing (viability)” value was “killed both undifferentiated and differentiated hPSCs”.
